According to patent US7271144B2, “Therapeutic fibrin-derived peptides and uses thereof” (Fibrex Medical Research & Development GmbH, priority 2000, dated 2007):
Where no end group is shown, it is not given here.

Key:
[1] = system: human skin transplanted onto the backs of SCID mice, human lymphocytes injected; assay: HU-SCID mouse model: inflammatory sites in transplanted human skin; format: in vivo
Experimental: Human skin was transplanted onto the backs of SCID mice, and two weeks later human lymphocytes were injected into the peritoneum. The proceedings were according to Petzelbauer et al. (J. Invest. Dermatol. 1996, 107; 576-581). Then, fifteen mice thus prepared were injected in their tail veins with the following:
Twenty-four hours later, the human skin was removed and the number of inflammatory sites, expressed in cells per 0.3 mm^2, was evaluated and the mean value was determined with a standard deviation.

[2] = system: peripheral mononuclear blood cells (PBMC); assay: Adhesion and transmigration of PBMC on HUVEC on a collagen matrix; format: cell-based, human; conditions: for adhesion / migration: Example 9, PBMC
Experimental: (§1) Endothelial cells from human umbilical veins (HUVEC) were marked with a red fluorescent dye (Cell Tracker Orange, 1 μl/ml, Molecular Probes, Eugene, Oreg.) and were dispersed on a collagen matrix (Collaborative Biomedical Products, Bedford, Mass.). Upon confluence of the endothelial cells, peripheral mononuclear blood cells (PBMC) (10^5 cells per 25 mm^2) marked with a green fluorescent dye (Cell Tracker Green, 1 μl/ml, Molecular Probes of Messrs. Eugene, Origon) were superimposed. Thereafter, the cells were incubated at 37° C. for twelve hours.
(§2) Adhering cells that had transmigrated into the gel were photographed with a laser-scan microscope, were converted into pixels and were evaluated by means of an “NIH image” according to Gröger et al. (J. Immunol. Method 1999; 222: 101-109).
(§3) It was feasible to determine the number of adherent cells per 0.1 mm^2 such as mentioned under “adhesion”. It was feasible to determine the number of migrated cells per 0.04 mm^3 such as mentioned under “migration”. The mean value of three times three trials was evaluated together with the standard deviation.
100 μg of NDSK-II and Bbeta or Bbeta randomized were added to the collagen matrix according to Example 8 comprising the suspension of PBMC, and further proceedings were in accordance with Example 8.
100 μg of NDSK-II and Aalpha or Aalpha randomized were added to the collagen matrix according to Example 8 comprising the suspension of PBMC, and further proceedings were in accordance with Example 8.

[3] = system: lymphocytes; assay: Adhesion and transmigration of pure lymphocytes on HUVEC on a collagen matrix; format: cell-based, human; conditions: Example 11; for adhesion / migration: lymphocytes
Experimental: as §1, §2, §3
Since PBMC substantially consists of a mixture of lymphocytes and monocytes, pure lymphocytes instead of PBMC (as in Examples 8-10) were used in Example 11.
100 μg of NDSK-uPA or 100 μg of NDSK-II, respectively, and Aalpha or Bbeta, respectively, were added to the collagen matrix according to Example 8 comprising endothelial cells and lymphocytes.
The proceedings were in accordance with Example 11, with pure lymphocytes being used. 100 μg of NDSK-uPA or 100 μg of NDSK-II, respectively, was added to the short peptide salts derived from Aalpha Gly Pro Arg (Pro)—NH2 acetate (Aalpha derivative) or derived from Bbeta Gly His Arg Pro-OH acetate (Bbeta derivative).

[4] = system: monocytes; assay: Adhesion and transmigration of pure monocytes on HUVEC on a collagen matrix; format: cell-based, human
Experimental: as §1, §2, §3
The proceedings were in accordance with Example 11, except for pure monocytes being used instead of lymphocytes. 100 μg of NDSK-uPA or 100 μg of NDSK-II, respectively, was added to peptide Aalpha, randomized Aalpha, Bbeta or randomized Bbeta.
The proceedings were in accordance with Example 12, with pure monocytes being used. […] of NDSK-uPA or 100 μg of NDSK-II, respectively, was added to the short peptide salts Aalpha Gly Pro Arg (Pro)—NH2 acetate (Aalpha derivative) or Bbeta Gly His Arg Pro-OH acetate (Bbeta derivative).

[5] = system: cardiac muscle; assay: Rat cardiac artery occlusion / reperfusion, infarct planimetry
[6] = 10 μg of peptide + 100 μg NDSK-II
[7] = 100 μg of peptide + 100 μg NDSK-II
[8] = 1000 μg of peptide + 100 μg NDSK-II
[9] = 100 μg of peptide + 100 μg NDSK-uPA
[10] = Example 12, 100 μg of peptide + 100 μg NDSK-II
[11] = Example 12, 100 μg of peptide + 100 μg NDSK-uPA
[12] = Example 12, substance alone, 100 μg
[13] = rat, 800 μg/kg intravenously at reperfusion after 25 min occlusion, 2 hours

Q: Which “number of inflammatory sites” value ([1]; Example 3, 100 μg alone, tail vein, 24 hours, mean +/- SD) does the source give for “GHRPLDKKREEAPSLRPAPPPISGGGYR [amino acids 1 to 28 of the beta chain of the fibrin]” here?
A: 6+/−1.1 cells per 0.3 mm^2

Q: And the inflammatory sites ([1]; Examples 4-7, 100 μg of peptide + 100 μg of human NDSK-II, 24 hours)?
A: 14+/−2 per 0.3 mm^2

Q: And the “conclusion: blocking of lymphocytic inflammation” value ([1]; Examples 4 to 7, with 100 μg NDSK-II)?
A: blocks lymphocytic inflammation

Q: What about the adhesion [2, 6] of the same sequence?
A: 63 +/− 33 cells per 0.1 mm^2

Q: What about the migration [2, 6] of the same sequence?
A: 7 +/− 4 cells per 0.04 mm^3

Q: What about the adhesion [2, 7] of the same sequence?
A: 47 +/− 34 cells per 0.1 mm^2

Q: And the migration [2, 7]?
A: 5 +/− 4 cells per 0.04 mm^3

Q: What about the adhesion [2, 8] of the same sequence?
A: 52 +/− 27 cells per 0.1 mm^2

Q: And the migration [2, 8]?
A: 10 +/− 6 cells per 0.04 mm^3

Q: And the “conclusion: blocking of NDSK-II-induced PBMC adhesion/migration” value ([2]; Examples 9 and 10, with 100 μg NDSK-II)?
A: blocks inflammations

Q: And the “conclusion: blocking of lymphocytic adhesion and migration induced by NDSK-II and NDSK-uPA” value [3]?
A: completely blocks

Q: And the adhesion [3, 7]?
A: 74 +/− 8 cells per 0.1 mm^2

Q: And the migration [3, 7]?
A: 17 +/− 3 cells per 0.04 mm^3

Q: And the adhesion [3, 9]?
A: 74 +/− 8 cells per 0.1 mm^2

Q: What about the migration [3, 9] of the same sequence?
A: 19 +/− 2 cells per 0.04 mm^3

Q: And the adhesion ([3]; substance alone, 100 μg)?
A: 58 +/− 18 cells per 0.1 mm^2

Q: And the migration ([3]; substance alone, 100 μg)?
A: 14 +/− 1 cells per 0.04 mm^3

Q: What about the adhesion [4, 10] of the same sequence?
A: 70 +/− 7 cells per 0.1 mm^2

Q: And the migration [4, 10]?
A: 7 +/− 5 cells per 0.04 mm^3

Q: And the adhesion [4, 11]?
A: 61 +/− 11 cells per 0.1 mm^2

Q: What about the migration [4, 11] of the same sequence?
A: 8 +/− 3 cells per 0.04 mm^3

Q: What about the adhesion [4, 12] of the same sequence?
A: 59 +/− 7 cells per 0.1 mm^2

Q: And the migration [4, 12]?
A: 5 +/− 1 cells per 0.04 mm^3

Q: And the “cardiac muscle threatened because of the vascular occlusion” value [5, 13]?
A: 60%

Q: What about the “endangered tissue that was dead” value [5, 13] of the same sequence?
A: 29%

Q: And the “reduction of dead tissue” value ([5]; versus reference rats, p<0.05)?
A: 37%
